In patent US9408811B2, “Pharmaceutical composition comprising guttiferone F for the treatment of prostate cancer” (Hong Kong Baptist University, priority 2013, dated 2016):

Assays:
PC3 cells [1] = test: PC3 xenograft nude mouse model B, intraperitoneal injection 10 mg/kg; assay type: in vivo, nude mice; settings: intraperitoneal injection 10 mg/kg every two days for 18 days; FIG. 5
Description: A total of 1×10^6 PC3 cells suspended in 100 μl of PBS and 100 μl of Matrigel are inoculated subcutaneously into the right flank of […] 4-week-old male nude mice. Drug injections are made once the tumors reach an average volume of about 200 mm^3. Mice are divided randomly into two groups of 7 for each group and subjected to intraperitoneal injection of vehicle or 10 mg/kg Guttiferone F every two days for 18 days. Tumor volume is measured by calipers and calculated by V=L×W^2/2. For intratumoral injection, Guttiferone F is prepared in 5% dimethyl sulfoxide, 5% tween 80, and 90% PBS.

PC-3 = test: MTT cytotoxic assay, PC-3; assay type: cell-based; settings: Homo sapiens, 48 h of treatment
Description: (§1) Two human prostate cancer cell lines LNCaP and PC3 are maintained in RPMI1640 (Sigma Chemical Company, St. Louis, Mo., USA) supplemented with 10% fetal bovine serum (HyClone). Hepatocellular carcinoma cell line Hep G2, epithelial cervical cancer cell line HeLa and nasopharyngeal carcinoma cell line CNE are maintained in DMEM (Invitrogen) supplemented with 10% new-born calf serum (Gibco), 100 U/ml penicillin and 100 μg/ml streptomycin (Invitrogen). All cancer cells are maintained in a humidified atmosphere containing 5% CO2 at 37° C.
(§2) Different cancer cells are seeded in a 96-well plate and pre-incubated for 24 hours before treatment with Guttiferone F (0-50 μM). After 48 h of treatment, 10 μl of MTT solution (5 mg/ml) (Sigma Chemical Company, St. Louis, Mo., USA) are added to each well and incubated for 4 h. The resulting crystals are dissolved in DMSO. The controls include native cells and medium only. The spectrophotometric absorbance at 570 nm is measured using a microplate reader (Synergy HT, Bio-Tek Instruments Inc., Winooski, Vt., USA). The percentage cytotoxicity is calculated by the formula: Percentage cytotoxicity (cell death)=[1-(absorbance of experimental wells/absorbance of control wells)]×100%.

LNCaP cells [2] = test: Flow cytometry (PI, FACS) sub-G1 apoptosis; assay type: cell-based, human; settings: 10 μM, serum-free medium, 24 h and 48 h
Description: Based on the result of the above MTT assay on prostate cancer cell lines, LNCaP cells and 10 μM of Guttiferone F are selected for studying the effect of Guittiferone F on apoptosis of human prostate cancer cells. Before that, LNCaP cells are treated with Guttiferone F at the concentration of 10 μM. Cells are trypsinized and fixed in ice-cold 100% methanol overnight at 4° C. Cells are washed, stained with propidium iodide (PI) for overnight, and subjected to fluorescence activated cell sorting (FACS) analysis on a FAC Scan flow cytometer (BD PharMingen, USA). Data are analyzed using the WinMID software.
To detect the apoptosis, sub-G1 phase cells were measured. Such cells are usually considered to be the result of apoptotic DNA fragmentation. The DNA is degraded by cellular endonucleases, during apoptosis. Therefore, nuclei of apoptotic cells contain less DNA than nuclei of healthy G0/G1 cells, resulting in a sub-G1 peak in the fluorescent histogram that may be used to determine the relative amount of apoptotic cells.

PC3 cells [3] = test: PC3 xenograft BALB/c nude mice, intraperitoneal GF with or without caloric restriction; assay type: in vivo; settings: i.p. 20 mg/kg normally fed, or 10 mg/kg with caloric restriction, versus control; FIG. 6, p<0.01
Description: Four-week-old male BALB/c nude mice from the Experimental Animal Center of Chinese Academy of Science (Shanghai, China) are used in this example. Approximately 1×10^6 PC3 cells suspended in 100 μl of PBS and 100 μl of Matrigel are injected subcutaneously into the right side of the animals. One week later, 28 mice bearing tumors around 50 mm^3 in volume are randomly divided into four groups (n=7 per group): Group 1: Control (normally fed, receiving daily i.p. vehicle), Group 2: Caloric restriction (fed with 70% of their normal food intake, receiving daily i.p. vehicle), Group 3: GF (normally fed, receiving daily i.p. 20 mg/kg of GF), and Group 4: GF+caloric restriction (calorie-restricted mice receiving daily i.p. 10 mg/kg of GF). Mice are administered via intraperitoneal injection of vehicle (control) in a form of solvent (0.5% DMSO, 0.5% Tween-80 in saline) and GF at the dose of 10 mg/kg or 20 mg/kg in 200 μl vehicle once every other day. […] Using the conversion formula between animal dose and human dose taught in Regan-Shaw et al. (2007), the daily human dose of GF through intraperitoneal injection is about 1.62 mg/kg to 2.4 mg/kg (corresponding to 20 mg/kg of GF for mouse); the daily human dose of GF under calorie restriction is at least in a range of 0.81 mg/kg to 1.2 mg/kg (corresponding to 10 mg/kg of GF for mouse).

HeLa = test: MTT cytotoxic assay, HeLa; assay type: cell-based; settings: Homo sapiens, 48 h of treatment
Description: as §1, §2

LNCaP cells [4] = test: Hoechst 33258 / MitoTracker Red confocal microscopy; assay type: cell-based, human; settings: treatment for 12 h or 24 h, laser confocal microscopy
Description: Hoechst is depicted as blue in the first column of images while MitoTracker Red is depicted as red in the second column of images; double stain of Hoechst 33258 and MitoTacker Red is shown in the third column of images, in which the dotted square in each image represents the area where the part is enlarged; the corresponding enlarged area of the image from the third column is shown in the fourth column.
LNCaP cells (2×10^5) are seeded on 35 mm culture dish and incubated 24 h to allow attachment. After the different treatment of Guttiferone F for 12 h or 24 h, the medium is removed from the dish and the staining solution (50 μg/ml Hoechst 33258 and 1 ng/ml MitoTracker Red in PBS) is added. The fluorescence of the bound dyes is analyzed using a laser scanning confocal microscope (FV10i, Olympus Corporation, Japan).

PC3 cells [5] = test: PC3 xenograft nude mouse model A, intratumoral injection; assay type: in vivo, nude mice; settings: intratumoral injection every two days for 20 days; 20 μM 3 times, then 100 μM; FIG. 4, p<0.05
Description: A total of 1×10^6 PC3 cells suspended in 100 μl of PBS and 100 μl of Matrigel (BD Biosciences, Bedford, Mass.) are inoculated subcutaneously (s.c.) into the right flank of six 4-week-old male nude mice. Drug injections are made once the tumors reach an average volume of about 100 mm^3. Mice are divided randomly into two groups of 3 mice in each group and subjected to intratumoral injection of vehicle (control) or […] Guttiferone F every two days for 20 days. (After 20 μM GF for 3 times, the dosage is increased to 100 μM GF). Tumor volume is measured by calipers and calculated by V=L×W^2/2 at different time intervals. For intratumoral injection, […] Guttiferone F is prepared in 5% dimethyl sulfoxide, 5% tween 80, and 90% PBS.

LNCaP = test: MTT cytotoxic assay, LNCaP; assay type: cell-based, human
Description: as §1, §2

Hep G2 = test: MTT cytotoxic assay, Hep G2; assay type: cell-based; settings: Homo sapiens, HepG2, 48 h of treatment
Description: as §1, §2

C=C(C)[C@H](CC=C(C)C)C[C@@]12C[C@@H](CC=C(C)C)C(C)(C)[C@@](CC=C(C)C)(C(=O)C(C(=O)c3ccc(O)c(O)c3)=C1O)C2=O [Guttiferone F]
tumor growth (tumor volume) (PC3 cells [1]): the growth of tumor is not inhibited significantly in 18 days | IC50 (PC-3): 12.6 ± 3.01 µM | apoptosis (sub-G1 phase cells) (LNCaP cells [2]): induce LNCaP cell death by apoptosis significantly | tumor growth (tumor volume) (PC3 cells [3]): tumor growth is significantly less prominent | IC50 (HeLa): 13.1 ± 1.32 µM | change in mitochondria and nucleus DNA (LNCaP cells [4]): DNA fragmentation and mitochondria focus are visualized | tumor growth (tumor volume) (PC3 cells [5]): the growth of tumor is inhibited significantly after 14 days | IC50 (LNCaP; Homo sapiens, LNCaP, MTT, 48 h of treatment): 5.17 ± 0.2 µM | selectivity between cell lines in MTT assay (LNCaP; prostate cancer cell lines versus other cell lines, Table 1): more specific to human prostate cancer than the others | IC50 (Hep G2): 32.9 ± 1.56 µM
